From ChEMBL document CHEMBL4376895
Active and inactive are the calls of the source. The calls are words filed in the database; no cut-off is given here. Positions of bridges follow the written chain, without caps; N, C: chain ends. Residues, ends and D or L forms follow the SMILES beside them.

Columns and labels:
Assay type in all cases: cell-based
[1] = biological target: T1, Neuronal acetylcholine receptor; alpha2/beta4 (Rattus norvegicus) (UniProt P12389+P12392); test: Antagonist activity at rat alpha2beta4 nAChR expressed in Xenopus laevis oocytes assessed as inhibition of Ach-induced response up to 10 uM at -70 mV holding potential by two electrode voltage-clamp assay
[2] = biological target: T2, Neuronal acetylcholine receptor; alpha4/beta2 (Rattus norvegicus) (UniProt P09483+P12390); test: Antagonist activity at rat alpha4beta2 nAChR expressed in Xenopus laevis oocytes assessed as inhibition of Ach-induced response up to 10 uM at -70 mV holding potential by two electrode voltage-clamp assay
[3] = biological target: T3, Neuronal acetylcholine receptor; alpha4/beta4 (Rattus norvegicus) (UniProt P09483+P12392); test: Antagonist activity at rat alpha4beta4 nAChR expressed in Xenopus laevis oocytes assessed as inhibition of Ach-induced response up to 10 uM at -70 mV holding potential by two electrode voltage-clamp assay
[4] = biological target: Nicotinic acetylcholine receptor alpha9/alpha10 (Rattus norvegicus) (UniProt P43144+Q9JLB5); test: Antagonist activity at rat alpha9alpha10 nAChR expressed in Xenopus laevis oocytes assessed as inhibition of Ach-induced response at 10 nM at -70 mV holding potential preincubated for 5 mins followed by compound washout by two electrode voltage-clamp assay
[5] = biological target: T2, Neuronal acetylcholine receptor; alpha4/beta2 (Rattus norvegicus); test: Antagonist activity at rat alpha4beta2 nAChR expressed in Xenopus laevis oocytes assessed as inhibition of Ach-induced response at >10 uM at -70 mV holding potential by two electrode voltage-clamp assay
[6] = biological target: T3, Neuronal acetylcholine receptor; alpha4/beta4 (Rattus norvegicus); test: Antagonist activity at rat alpha4beta4 nAChR expressed in Xenopus laevis oocytes assessed as inhibition of Ach-induced response at >10 uM at -70 mV holding potential by two electrode voltage-clamp assay
[7] = biological target: T1, Neuronal acetylcholine receptor; alpha2/beta4 (Rattus norvegicus); test: Antagonist activity at rat alpha2beta4 nAChR expressed in Xenopus laevis oocytes assessed as inhibition of Ach-induced response at >10 uM at -70 mV holding potential by two electrode voltage-clamp assay
[8] = biological target: T4, Neuronal acetylcholine receptor; alpha9/alpha10 (Homo sapiens) (UniProt Q9UGM1+Q9GZZ6); test: Antagonist activity at human alpha9alpha10 nAChR expressed in Xenopus laevis oocytes assessed as inhibition of Ach-induced response at 50 nM at -70 mV holding potential by two electrode voltage-clamp assay relative to control
[9] = biological target: T4, Neuronal acetylcholine receptor; alpha9/alpha10 (Homo sapiens); test: Antagonist activity at human alpha9alpha10 nAChR expressed in Xenopus laevis oocytes assessed as inhibition of Ach-induced response at 100 nM at -70 mV holding potential by two electrode voltage-clamp assay relative to control

Compound	inhibition [1]	inhibition [2]	inhibition [3]	inhibition [4]	inhibition [5]	inhibition [6]	inhibition [7]	inhibition [8] [%]	inhibition [9] [%]
CC[C@H](C)[C@H](NC(=O)[C@H](CCCNC(=N)N)NC(=O)[C@H](CCCNC(=N)N)NC(=O)[C@H](CO)NC(=O)[C@H](Cc1ccc(O)cc1)NC(=O)[C@H](CCCNC(=N)N)NC(=O)[C@H](CCCNC(=N)N)NC(=O)[C@H](CCCNC(=N)N)NC(=O)[C@H](CCCNC(=N)N)NC(=O)[C@H](CC(=O)O)NC(=O)[C@H](Cc1ccc(O)cc1)NC(=O)[C@@H]1CCCN1C(=O)[C@H](CO)NC(=O)[C@H](CCCNC(=N)N)NC(=O)[C@@H]1CSSC[C@H](NC(=O)[C@@H](N)[C@@H](C)O)C(=O)N[C@@H](CCCNC(=N)N)C(=O)N[C@@H](CO)C(=O)N[C@@H](CO)C(=O)NCC(=O)N[C@@H](CCCNC(=N)N)C(=O)N[C@@H](Cc2ccc(O)cc2)C(=O)N1)C(=O)N[C@H](C(=O)N[C@@H](CC(=O)O)C(=O)N[C@@H](C)C(=O)N[C@@H](CO)C(=O)N[C@H](C(=O)O)C(C)C)[C@@H](C)O	inactive	inactive	inactive	–	–	–	–	–	–
H-TSRSSGRYSRSPYDRRRRYSRRITDASV-OH	inactive	inactive	inactive	–	–	–	–	–	–
CC[C@H](C)[C@@H]1NC(=O)[C@H](CCCNC(=N)N)NC(=O)[C@H](CCCNC(=N)N)NC(=O)[C@H](CO)NC(=O)[C@H](Cc2ccc(O)cc2)NC(=O)[C@H](CCCNC(=N)N)NC(=O)[C@H](CCCNC(=N)N)NC(=O)[C@H](CCCNC(=N)N)NC(=O)[C@H](CCCNC(=N)N)NC(=O)[C@H](CC(=O)O)NC(=O)[C@H](Cc2ccc(O)cc2)NC(=O)[C@@H]2CCCN2C(=O)[C@H](CO)NC(=O)[C@H](CCCNC(=N)N)NC(=O)[C@H](CO)NC(=O)[C@H](Cc2ccc(O)cc2)NC(=O)[C@H](CCCNC(=N)N)NC(=O)CNC(=O)[C@H](CO)NC(=O)[C@H](CO)NC(=O)[C@H](CCCNC(=N)N)NC(=O)[C@@H](NC(=O)[C@@H](N)[C@@H](C)O)CSSC[C@@H](C(=O)N[C@H](C(=O)O)C(C)C)NC(=O)[C@H](C)NC(=O)[C@H](CC(=O)O)NC(=O)[C@H]([C@@H](C)O)NC1=O (H-TCRSSGRYSRSPYDRRRRYSRRITDACV-OH; disulfide 2-27)	inactive	inactive	inactive	–	–	–	–	–	–
H-TARSSGRYARSPYDRRRRYSRRITDASV-OH	inactive	inactive	inactive	Active	Active	Active	Active	74	100
CC[C@H](C)[C@H](NC(=O)[C@H](CCCNC(=N)N)NC(=O)[C@H](CCCNC(=N)N)NC(=O)[C@@H]1CSSC[C@H](NC(=O)[C@H](Cc2ccc(O)cc2)NC(=O)[C@H](CCCNC(=N)N)NC(=O)CNC(=O)[C@H](CO)NC(=O)[C@H](CO)NC(=O)[C@H](CCCNC(=N)N)NC(=O)[C@H](C)NC(=O)[C@@H](N)[C@@H](C)O)C(=O)N[C@@H](CCCNC(=N)N)C(=O)N[C@@H](CO)C(=O)N2CCC[C@H]2C(=O)N[C@@H](Cc2ccc(O)cc2)C(=O)N[C@@H](CC(=O)O)C(=O)N[C@@H](CCCNC(=N)N)C(=O)N[C@@H](CCCNC(=N)N)C(=O)N[C@@H](CCCNC(=N)N)C(=O)N[C@@H](CCCNC(=N)N)C(=O)N[C@@H](Cc2ccc(O)cc2)C(=O)N1)C(=O)N[C@H](C(=O)N[C@@H](CC(=O)O)C(=O)N[C@@H](C)C(=O)N[C@@H](C)C(=O)N[C@H](C(=O)O)C(C)C)[C@@H](C)O	inactive	inactive	inactive	–	–	–	–	–	–
CC[C@H](C)[C@H](NC(=O)[C@H](CCCNC(=N)N)NC(=O)[C@H](CCCNC(=N)N)NC(=O)[C@@H]1CSSC[C@H](NC(=O)[C@H](Cc2ccc(O)cc2)NC(=O)[C@H](CCCNC(=N)N)NC(=O)CNC(=O)[C@H](CO)NC(=O)[C@H](CO)NC(=O)[C@H](CCCNC(=N)N)NC(=O)[C@H](CO)NC(=O)[C@@H](N)[C@@H](C)O)C(=O)N[C@@H](CCCNC(=N)N)C(=O)N[C@@H](CO)C(=O)N2CCC[C@H]2C(=O)N[C@@H](Cc2ccc(O)cc2)C(=O)N[C@@H](CC(=O)O)C(=O)N[C@@H](CCCNC(=N)N)C(=O)N[C@@H](CCCNC(=N)N)C(=O)N[C@@H](CCCNC(=N)N)C(=O)N[C@@H](CCCNC(=N)N)C(=O)N[C@@H](Cc2ccc(O)cc2)C(=O)N1)C(=O)N[C@H](C(=O)N[C@@H](CC(=O)O)C(=O)N[C@@H](C)C(=O)N[C@@H](CO)C(=O)N[C@H](C(=O)O)C(C)C)[C@@H](C)O	inactive	inactive	inactive	–	–	–	–	–	–
H-TSRSSGRYSRSPYDRRRRYARRITDAAV-OH	inactive	inactive	inactive	–	–	–	–	–	–
CC[C@H](C)[C@@H]1NC(=O)[C@H](CCCNC(=N)N)NC(=O)[C@H](CCCNC(=N)N)NC(=O)[C@@H](NC(=O)[C@H](Cc2ccc(O)cc2)NC(=O)[C@H](CCCNC(=N)N)NC(=O)[C@H](CCCNC(=N)N)NC(=O)[C@H](CCCNC(=N)N)NC(=O)[C@H](CCCNC(=N)N)NC(=O)[C@H](CC(=O)O)NC(=O)[C@H](Cc2ccc(O)cc2)NC(=O)[C@@H]2CCCN2C(=O)[C@H](CO)NC(=O)[C@H](CCCNC(=N)N)NC(=O)[C@H](C)NC(=O)[C@H](Cc2ccc(O)cc2)NC(=O)[C@H](CCCNC(=N)N)NC(=O)CNC(=O)[C@H](CO)NC(=O)[C@H](CO)NC(=O)[C@H](CCCNC(=N)N)NC(=O)[C@H](C)NC(=O)[C@@H](N)[C@@H](C)O)CSSC[C@@H](C(=O)N[C@H](C(=O)O)C(C)C)NC(=O)[C@H](C)NC(=O)[C@H](CC(=O)O)NC(=O)[C@H]([C@@H](C)O)NC1=O (H-TARSSGRYARSPYDRRRRYCRRITDACV-OH; disulfide 20-27)	inactive	inactive	inactive	–	–	–	–	–	–
CC[C@H](C)[C@@H]1NC(=O)[C@H](CCCNC(=N)N)NC(=O)[C@H](CCCNC(=N)N)NC(=O)[C@@H](NC(=O)[C@H](Cc2ccc(O)cc2)NC(=O)[C@H](CCCNC(=N)N)NC(=O)[C@H](CCCNC(=N)N)NC(=O)[C@H](CCCNC(=N)N)NC(=O)[C@H](CCCNC(=N)N)NC(=O)[C@H](CC(=O)O)NC(=O)[C@H](Cc2ccc(O)cc2)NC(=O)[C@@H]2CCCN2C(=O)[C@H](CO)NC(=O)[C@H](CCCNC(=N)N)NC(=O)[C@H](CO)NC(=O)[C@H](Cc2ccc(O)cc2)NC(=O)[C@H](CCCNC(=N)N)NC(=O)CNC(=O)[C@H](CO)NC(=O)[C@H](CO)NC(=O)[C@H](CCCNC(=N)N)NC(=O)[C@H](CO)NC(=O)[C@@H](N)[C@@H](C)O)CSSC[C@@H](C(=O)N[C@H](C(=O)O)C(C)C)NC(=O)[C@H](C)NC(=O)[C@H](CC(=O)O)NC(=O)[C@H]([C@@H](C)O)NC1=O (H-TSRSSGRYSRSPYDRRRRYCRRITDACV-OH; disulfide 20-27)	inactive	inactive	inactive	–	–	–	–	–	–
CC[C@H](C)[C@@H]1NC(=O)[C@H](CCCNC(=N)N)NC(=O)[C@H](CCCNC(=N)N)NC(=O)[C@H](C)NC(=O)[C@H](Cc2ccc(O)cc2)NC(=O)[C@H](CCCNC(=N)N)NC(=O)[C@H](CCCNC(=N)N)NC(=O)[C@H](CCCNC(=N)N)NC(=O)[C@H](CCCNC(=N)N)NC(=O)[C@H](CC(=O)O)NC(=O)[C@H](Cc2ccc(O)cc2)NC(=O)[C@@H]2CCCN2C(=O)[C@H](CO)NC(=O)[C@H](CCCNC(=N)N)NC(=O)[C@H](C)NC(=O)[C@H](Cc2ccc(O)cc2)NC(=O)[C@H](CCCNC(=N)N)NC(=O)CNC(=O)[C@H](CO)NC(=O)[C@H](CO)NC(=O)[C@H](CCCNC(=N)N)NC(=O)[C@@H](NC(=O)[C@@H](N)[C@@H](C)O)CSSC[C@@H](C(=O)N[C@H](C(=O)O)C(C)C)NC(=O)[C@H](C)NC(=O)[C@H](CC(=O)O)NC(=O)[C@H]([C@@H](C)O)NC1=O (H-TCRSSGRYARSPYDRRRRYARRITDACV-OH; disulfide 2-27)	inactive	inactive	inactive	–	–	–	–	–	–
CC[C@H](C)[C@H](NC(=O)[C@H](CCCNC(=N)N)NC(=O)[C@H](CCCNC(=N)N)NC(=O)[C@H](C)NC(=O)[C@H](Cc1ccc(O)cc1)NC(=O)[C@H](CCCNC(=N)N)NC(=O)[C@H](CCCNC(=N)N)NC(=O)[C@H](CCCNC(=N)N)NC(=O)[C@H](CCCNC(=N)N)NC(=O)[C@H](CC(=O)O)NC(=O)[C@H](Cc1ccc(O)cc1)NC(=O)[C@@H]1CCCN1C(=O)[C@H](CO)NC(=O)[C@H](CCCNC(=N)N)NC(=O)[C@@H]1CSSC[C@H](NC(=O)[C@@H](N)[C@@H](C)O)C(=O)N[C@@H](CCCNC(=N)N)C(=O)N[C@@H](CO)C(=O)N[C@@H](CO)C(=O)NCC(=O)N[C@@H](CCCNC(=N)N)C(=O)N[C@@H](Cc2ccc(O)cc2)C(=O)N1)C(=O)N[C@H](C(=O)N[C@@H](CC(=O)O)C(=O)N[C@@H](C)C(=O)N[C@@H](C)C(=O)N[C@H](C(=O)O)C(C)C)[C@@H](C)O	inactive	inactive	inactive	–	–	–	–	–	–
H-TARSSGRYARSPYDRRRRYARRITDAAV-OH	inactive	inactive	inactive	–	–	–	–	–	–
